Patent US4885299A, “2-(2,3-dihydro-2-oxo-3-benzofuranyl)acetic acids antihypoxic and nootropic effects having” (ADIR Et Cie, priority 1987, dated 1989)
Where a name gives a salt, the structure may show the parent alone. Read-outs that look alike come from different tables or passages of the source.

Tests used:
[1] = system: brain energy-rich compounds (ATP, ADP, AMP); experiment: Acute hypoxia in rats; protection of tissue energy-rich compounds in brain (ATP, energy content); format: in vivo, Male Fischer 344 rats (Charles River); settings: for % inhibition of the effects of hypoxia, ATP / % inhibition of the effects of hypoxia, EC (tissue energy content): 3% oxygen for 2 minutes; for antihypoxic effect / protection in words: 300 mg/kg
Procedure: (§1) The compounds of the present invention were tested in respect of their capacity to prolong the survival of cerebral tissue during acute hypoxia in mice, or to maintain the level of tissue energy-rich compounds in rats subjected to a fall in the oxygen supply [Pharmacology of Cerebral Ischemia, p. 334-339 (1968) Elsevier Science Publishers B.V., J. Krieglstein ed.]. […] Forsch. Drug. Res. (1986), 36 II No. 9, p. 1314-1320].
Whereas the control rats breath a gaseous mixture containing 21% of oxygen and 79% of nitrogen, the rats subjected to hypoxia breath a mixture of 3% oxygen and 97% nitrogen for 2 minutes.
At the end of the hypoxic period, the animals are rapidly sacrificed by total immersion in liquid nitrogen. The frozen brain is removed and the energy-rich compounds (ATP, ADP, AMP) are extracted and assayed by the luciferin luminescence method.
The tissue energy content (EC) is calculated according to ATKINSON's formula: [formula]

[2] = system: Acute hypoxia in mice; survival of the brain; experiment: Acute hypoxia in mice (hypobaric); brain survival time to final respiratory gasp; format: in vivo, Male CD1 mice (Charles River)
Procedure: as §1
The survival of the brain is assessed by measuring the time at which the final respiratory gasp is observed.
The survival time of a treated batch is compared with that of a control batch receiving only the solvent.
The percentage increase in the survival time after the animals are treated with the compounds of the invention is shown in Table II.

[3] = Mus musculus, ip, 30 mg/kg I.P., 30 minutes before hypoxia, mice, read-out: Percentage increase in the survival time
[4] = Mus musculus, ip, 100 mg/kg I.P., 30 minutes before hypoxia, mice, read-out: Percentage increase in the survival time
[5] = 100 mg/kg I.P., 30 minutes before hypoxia, mice
[6] = Mus musculus, ip, read-out: Percentage increase in the survival time
[7] = 100 mg/kg I.P., listed as pyritinol

## O=C(CC1(c2ccccc2)C(=O)Oc2ccc(Cl)cc21)N1CCN(Cc2ccc3c(c2)OCO3)CC1 (stereo not shown) [Example 16, 2-(5-Chloro-2,3-dihydro-2-oxo-3-phenyl-3-benzofuranyl)-1-[4-(3,4-methylenedioxybenzyl)piperazinyl]-1-oxoethane]
[1]; 100 mg/kg I.P.
  % inhibition of the effects of hypoxia, ATP: 77.5%
  % inhibition of the effects of hypoxia, EC (tissue energy content): 76.3%
[2]; 100 mg/kg I.P., 30 minutes before hypoxia, mice, listed as Ex. 16
  Percentage increase in the survival time: +100%
[2]; [3]
  change in vivo at 30 mg/kg: 64%
[2]; [4]
  change in vivo at 100 mg/kg: 100%

## O=C(CC1(c2ccccc2)C(=O)Oc2ccc(F)cc21)N1CCN(Cc2ccc3c(c2)OCO3)CC1 (stereo not shown) [Example 20, 2-(5-Fluoro-2,3-dihydro-2-oxo-3-phenyl-3-benzofuranyl)-1-[4-(3,4-methylenedioxybenzyl)piperazinyl]-1-oxoethane hydrochloride]
[1]; 30 mg/kg I.P.
  % inhibition of the effects of hypoxia, ATP: 56.9%
  % inhibition of the effects of hypoxia, EC (tissue energy content): 61.3%
[1]; 100 mg/kg I.P.
  % inhibition of the effects of hypoxia, ATP: 70.2%
  % inhibition of the effects of hypoxia, EC (tissue energy content): 71.5%
[2]; 100 mg/kg I.P., 30 minutes before hypoxia, mice, listed as Ex. 20, hydrochloride
  Percentage increase in the survival time: +100%
[2]; Mus musculus, ip, 10 mg/kg I.P., 30 minutes before hypoxia, mice, read-out: Percentage increase in the survival time
  change in vivo at 10 mg/kg: 52%
[2]; [3]
  change in vivo at 30 mg/kg: 104%
[2]; [4]
  change in vivo at 100 mg/kg: 100%
[2]; Mus musculus, ip, 300 mg/kg I.P., 30 minutes before hypoxia, mice, read-out: Percentage increase in the survival time
  change in vivo at 300 mg/kg: 128%

## CN(C)CCOC(=O)COc1ccc(Cl)cc1 [Meclofenoxate, meclofenoxate, reference compound]
[1]; 300 mg/kg I.P.
  % inhibition of the effects of hypoxia, ATP: 59.7%
  % inhibition of the effects of hypoxia, EC (tissue energy content): 69.6%
[2]; [5]
  Percentage increase in the survival time: +22%
[2]; [6]
  change in vivo at 30 mg/kg: 4%
  change in vivo at 100 mg/kg: 22%
  change in vivo at 600 mg/kg: 190%

## NC(=O)CN1CCCC1=O [Piracetam, piracetam, reference compound]
[1]
  antihypoxic effect / protection in words: only very little protection
[1]; 300 mg/kg I.P.
  % inhibition of the effects of hypoxia, EC (tissue energy content): 1.6%
[2]; [5]
  Percentage increase in the survival time: +11%
[2]; [4]
  change in vivo at 100 mg/kg: 11%
[2]; Mus musculus, ip, 1000 mg/kg I.P., 30 minutes before hypoxia, mice, read-out: Percentage increase in the survival time
  change in vivo at 1000 mg/kg: 25%

## Cc1ncc(CSSCc2cnc(C)c(O)c2CO)c(CO)c1O [Pyritinol, pyritinol]
[1]; 30 mg/kg I.P.
  % inhibition of the effects of hypoxia, ATP: 11.1%
  % inhibition of the effects of hypoxia, EC (tissue energy content): 16.6%
[1]; 100 mg/kg
  antihypoxic effect in words: only a more modest effect
[1]; 100 mg/kg I.P.
  % inhibition of the effects of hypoxia, ATP: 23.3%
  % inhibition of the effects of hypoxia, EC (tissue energy content): 35.2%
[1]; [7]
  % inhibition of the effects of hypoxia, ATP: 23%
  % inhibition of the effects of hypoxia, EC (tissue energy content): 35%
[1]
  antihypoxic effect / protection in words: distinct antihypoxic effect
[1]; 300 mg/kg I.P.
  % inhibition of the effects of hypoxia, ATP: 90.4%
  % inhibition of the effects of hypoxia, EC (tissue energy content): 85.4%
[2]; [5]
  Percentage increase in the survival time: +27%
[2]; 100 mg/kg, mice
  significance of the protection (brain survival time): significant
[2]; [3]
  change in vivo at 30 mg/kg: 13%
[2]; [4]
  change in vivo at 100 mg/kg: 27%
[2]; Mus musculus, ip, 200 mg/kg I.P., 30 minutes before hypoxia, mice, read-out: Percentage increase in the survival time
  change in vivo at 200 mg/kg: 77%
